Measurements published in US11666539B2, “Synthetic lipid-like materials for brain delivery” (Trustees of Tufts College, priority 2020, dated 2023).

Tested on: flox-stop-flox tdTomato construct
Experiment: (-27)GFP-Cre protein delivery, tdTomato expression in Ai14 mouse brain
Type: in vivo
Details: (-27)GFP-Cre/LNP weight ratio 1/4; four i.v. injections of 50 μg protein; brain slices, fluorescence imaging
Description: GFP fused Cre recombinase was chosen as a model protein for the study, using the Ail4 model mouse line (FIG. 4A). The Ail4 mouse line contains a flox-stop-flox tdTomato construct. The successful intracellular delivery of Cre protein into the cells of Ail4 mouse leads to the gene recombination and turns on the tdTomato expression which can be directly visualized as red fluorescence signal without additional staining. Here, (−27)GFP-Cre protein was used. NT1-O14B LNPs doped with PBA-Q76-O16B was chosen, as these nanoparticles could successfully deliver (−27)GFP-Cre. The weight ratio of NT1-O14B and PBA-Q76-O16B was fixed at 3:7, based on the results observed from the AmB and ASO delivery. Lipid formulations were prepared using the approaches described for the formulation for ASO delivery. Briefly, the (−27)GFP-Cre protein was mixed with LNPs at a weight ratio of 1/4 and incubated the solution for 15 min at room temperature before intravenous injection. Mice were injected four times with a dose of 50 μg protein per injection. Five days after the last injection, the mice were sacrificed and brain tissues were collected, fixed, and dehydrated. Then the tissues were cryo-sectioned into […] slices and counter-stained with DAPI for fluorescence imaging.

CCCCCCCCCCCCSSCCOC(=O)CC[N+](CCC(=O)OCCSSCCCCCCCCCCCC)(CCN1CCCC1)Cc1ccc(B(O)O)cc1 [PBA-Q76-O16B]
tdTomato expression in the brain: no tdTomato expression
